Source: patent US6133264A, “Carbostyril derivatives for inhibiting skin erythema and/or skin pigmentation” (Otsuka Pharmaceutical Co., Ltd., priority 1997, dated 2000)
Counter-ions that a name gives are not always drawn.

Test system: not listed separately
Assay: DPPH free radical extinction activity test
Format: biochemical
Conditions: relative to α-tocopherol (= 2); 5 μl of 10 mM test compound, 30° C., 30 minutes, pH 5.5 buffer, 517 nm
Procedure: (1) DPPH free radical extinction activity test
The test was conducted by procedures according to the method by Marsden S. Blois [Nature, Vol. […], 1199-1200, (1958)].
Into 0.5 ml of 200 mM of acetic acid buffer solution (pH 5.5) were added 0.5 ml of distilled water, 0.5 ml of ethanol and 5 μl of 10 mM of the test compound solution (an ethanol solution, a dimethylformamide solution or an aqueous solution), and stirred at 30° C. for 5 minutes. To this mixed solution was added 1.5 ml of an ethanol solution of 250 μM of 1,1-diphenyl-2-picrylhydrazyl (DPPH), this mixture was incubated at 30° C. for 30 minutes. After the incubation, the optical absorbance (at 517 nm) of this reaction mixture was measured, and the number of captured free radicals of DPPH was calculated from the ratio of optical absorbance of test compound and that of α-tocopherol (standard substance: the number of captured free radicals: 2) by the following formula: […]
Number of captured free radicals of DPPH performed by test
(A): optical absorbance of the test sample, and
(B): optical absorbance of α-tocopherol].

Structure (SMILES)	Number of captured free radicals of DPPH
O=C1CCc2c(O)c(CN3CCCC3)cc(OC3CCCCO3)c2N1 (stereo not shown) [Example 47]	3.5
C=CCOc1cc(CN(C)C)c(O)c2c1NC(=O)CC2 [Example 18, 8-allyloxy-3,4-dihydro-5-hydroxy-6-dimethyl-aminomethyl-2(1H)-quinolinone hydrochloride]	1.5
C=CCOc1cc(CN2CCCCC2)c(O)c2c1N(CC=C(C)C)C(=O)CC2 [Example 32]	1
C=CCOc1cc(CN2CCCCC2)c(O)c2c1NC(=O)CC2 [Example 28, 8-allyloxy-3,4-dihydro-5-hydroxy-6-(1-piperidinyl)methyl-2(1H)-quinolinonehydrochloride]	2
Cc1cc2c(c(CN3CCCC3)c1O)NC(=O)CC2 [Example 25]	1

Test system: skin erythema (sunburn)
Assay: Effect for preventing skin sunburn caused by UV rays irradiation (in vivo)
Design: species or system albino guinea pig (Hartley strain, female)
Conditions: 3% test compound solution, 10 μl; 24 hours after UV irradiation
Procedure: (2) Effect for preventing skin sunburn caused by UV rays irradiation (in vivo)
This test is an experimental model of quantitative evaluation of effect for preventing skin sunburn, caused by UV rays irradiation, performed by the test compound. [Test was conducted by a modified method according to the procedures of J. Dermatol. Vol. 17, pp. 595-598, (1990).]
Hairs on the back of an albino guinea pig (Hartley strain, female, age of 7-8 weeks) were shaved by use of an electric hair clipper and an electric shaver. Next day, the guinea pig was fixed on a Bowlman cage, a piece of shading tape (a plaster for patch test) having 4 circular holes of 1.5 cm in diameter was put on the shaved portion of the skin, and predetermined 2 sections of UV rays irradiation. One section (reference section) was coated with 10 μl of a solvent (water or 50% ethanol-water solution). Another section (test section) was coated with 10 μl of 3% test compound solution (aqueous or 50% ethanol-water solution). 30 Minutes after the coating, UV rays of 1.3-1.5 mW/cm^2 in strength was irradiated for 30 minutes by use of a fluorescent lamp of healthy light (TOSHIBA FL-20.cndot.SE) as a light source. 24 Hours after the irradiation, the reference section (coated with the solvent only) and the test section (coated with test compound solution) were observed respectively, and the erythrochromia (Δa value) on both reference section and test section were measured by use of a color difference meter (OFC-300A Type, mfd. by NIHON DENSHOKU KOGYO CO., LTD). The inhibitory ratio of skin erythema (sunburn) performed by the test compound was calculated from the following formula.
Inhibitory ratio of skin erythema (sunburn) (%)={1-[(C)/(D)]}×100
(C): Δa Value of test section of skin coated with test compound solution,
(D): Δa Value of reference section of skin coated with the solvent only, and
Δa value: difference of skin erythema on the portion irradiated with UV rays].

Structure (SMILES)	(C): Δa value of test section of skin coated with test compound solution
O=C1CCc2c(O)c(CN3CCCC3)cc(OC3CCCCO3)c2N1 (stereo not shown) [Example 47]	0.88 ± 0.29
C=CCOc1cc(CN(C)C)c(O)c2c1NC(=O)CC2 [Example 18, 8-allyloxy-3,4-dihydro-5-hydroxy-6-dimethyl-aminomethyl-2(1H)-quinolinone hydrochloride]	3.87 ± 2.45
C=CCOc1cc(CN2CCCCC2)c(O)c2c1N(CC=C(C)C)C(=O)CC2 [Example 32]	2.17 ± 0.97
C=CCOc1cc(CN2CCCCC2)c(O)c2c1NC(=O)CC2 [Example 28, 8-allyloxy-3,4-dihydro-5-hydroxy-6-(1-piperidinyl)methyl-2(1H)-quinolinonehydrochloride]	1.13 ± 0.58
Cc1cc2c(c(CN3CCCC3)c1O)NC(=O)CC2 [Example 25]	3.31 ± 2.00

Same assay, conditions: Cavia porcellus, light or radiation study, topical, 24 h, {1-[(C)/(D)]}×100; 3% test compound solution; 24 hours after UV irradiation; read-out: Inhibitory ratio of skin erythema (%)

Structure (SMILES)	inhibition in vivo at 3 %
O=C1CCc2c(O)c(CN3CCCC3)cc(OC3CCCCO3)c2N1 (stereo not shown) [Example 47]	76%
C=CCOc1cc(CN(C)C)c(O)c2c1NC(=O)CC2 [Example 18, 8-allyloxy-3,4-dihydro-5-hydroxy-6-dimethyl-aminomethyl-2(1H)-quinolinone hydrochloride]	51%
C=CCOc1cc(CN2CCCCC2)c(O)c2c1N(CC=C(C)C)C(=O)CC2 [Example 32]	64%
Cc1cc2c(c(CN3CCCC3)c1O)NC(=O)CC2 [Example 25]	64%

Same assay, conditions: {1-[(C)/(D)]}×100; 3% test compound solution; 24 hours after UV irradiation

Structure (SMILES)	Inhibitory ratio of skin erythema (%)
C=CCOc1cc(CN2CCCCC2)c(O)c2c1NC(=O)CC2 [Example 28, 8-allyloxy-3,4-dihydro-5-hydroxy-6-(1-piperidinyl)methyl-2(1H)-quinolinonehydrochloride]	78%

Test system: skin pigmentation
Assay: Effect for preventing skin pigmentation caused by UV rays irradiation
Format: in vivo, colored guinea pig (A-1 strain, female)
Conditions: 3% test compound solution, 10 μl/cm^2; 14 days after UV irradiation
Procedure: (3) Effect for preventing skin pigmentation caused by UV rays irradiation This is an experimental model of quantitative evaluation of effect for preventing skin pigmentation caused by UV rays irradiation performed by test compound. [Test was conducted by a modified method according to procedures of J. Dermatol. Vol. 17, pp. 595-598,(1990).] Hairs on the back of a colored guinea pig (A-1 strain, female, age of 8-10 weeks) were shaved and the body of guinea pig was fixed on a Bowlman cage, and predermined 2 sections of UV rays irradiation. […] The inhibitory ratio of the skin pigmentation (%) performed by the test compound was calculated from the following formula. […] [wherein (E): ΔL value of brightness of the skin coated with test compound solution (test section), (F): ΔL value of brightness of the skin coated the solvent (reference section), and ΔL value: difference of brightness of the skin between the portion without irradiated and the portion irradiated with UV rays].

Structure (SMILES)	(E): ΔL value of brightness of the skin coated with test compound solution (test section)
O=C1CCc2c(O)c(CN3CCCC3)cc(OC3CCCCO3)c2N1 (stereo not shown) [Example 47]	-4.89 ± 1.24
C=CCOc1cc(CN(C)C)c(O)c2c1NC(=O)CC2 [Example 18, 8-allyloxy-3,4-dihydro-5-hydroxy-6-dimethyl-aminomethyl-2(1H)-quinolinone hydrochloride]	-3.53 ± 1.24
C=CCOc1cc(CN2CCCCC2)c(O)c2c1N(CC=C(C)C)C(=O)CC2 [Example 32]	-3.37 ± 2.36
C=CCOc1cc(CN2CCCCC2)c(O)c2c1NC(=O)CC2 [Example 28, 8-allyloxy-3,4-dihydro-5-hydroxy-6-(1-piperidinyl)methyl-2(1H)-quinolinonehydrochloride]	-4.51 ± 1.87
Cc1cc2c(c(CN3CCCC3)c1O)NC(=O)CC2 [Example 25]	-5.02 ± 2.02

Same assay, conditions: {1-[(E)/(F)]}×100; 3% test compound solution; 14 days after UV irradiation

Structure (SMILES)	Inhibitory ratio of skin pigmentation (%)
O=C1CCc2c(O)c(CN3CCCC3)cc(OC3CCCCO3)c2N1 (stereo not shown) [Example 47]	38%
C=CCOc1cc(CN(C)C)c(O)c2c1NC(=O)CC2 [Example 18, 8-allyloxy-3,4-dihydro-5-hydroxy-6-dimethyl-aminomethyl-2(1H)-quinolinone hydrochloride]	49%
C=CCOc1cc(CN2CCCCC2)c(O)c2c1N(CC=C(C)C)C(=O)CC2 [Example 32]	42%
C=CCOc1cc(CN2CCCCC2)c(O)c2c1NC(=O)CC2 [Example 28, 8-allyloxy-3,4-dihydro-5-hydroxy-6-(1-piperidinyl)methyl-2(1H)-quinolinonehydrochloride]	43%
Cc1cc2c(c(CN3CCCC3)c1O)NC(=O)CC2 [Example 25]	38%

Test system: skin reaction (erythema and edema)
Assay: Skin sensitization test (Adjuvant and strip test), photosensitization
Format: in vivo, Albino guinea pigs (Hertley strain, female)
Conditions: 3% test compound solution, open-coated; observed 24 hours and 48 hours; [(G)/(H)]×100
Text: (4) Skin sensitization test [Adjuvant and strip test: J. Invest. Dermatol., Vol. 76, pp 498-501, (1981)]
This test was used as experimental model for evaluating the existence of toxicity of photosensitization to the skin performed by the test compounds.
(i) Procedure for inducing photosensitization
Albino guinea pigs (Hertley strain, female, age of 5-6 weeks) were used. Hairs of the nuchal area of the guinea pig were shaved, and designated the test sample coating section having 2×4 cm in size. At the four corners of the test sample coating section, 0.1 ml each of E-FCA (an emulsion consisting of the same volume each of Freund's complete adjuvant with sterilized distilled water) were intracutaneouly injected. The coating section was subjected to striping repeatedly by use of Cellophane tape until the section turned to slightly erythema, then 0.1 ml of test compound solution (aqueous or 50% ethanol-water solution) of 3% in concentration was open-coated on the section. 30 Minutes after the coating, UV rays of about 10 J/cm^2 in dosage was irradiated by use of a fluorescent lamp of healthy light (TOSHIBA FL-20S-BLB) as a light source. The above-mentioned procedure was carried out once a day, and continuously conducted for 5 days, provided that E-FCA was administered only on the first day.
(ii) Procedure for introducing sensitization
3 Weeks after the beginning of induction period of photosensitization, the covering hairs on the back of guinea pig were shaved, and determined a circular section, having 1.5 cm in diameter, for coating test samples, and 20 μl of test compound solution (aqueous or 50% ethanol-water solution) of 3% in concentration was open-coated on the section. The test sample coated section was observed 24 hours and 48 hours, and examined existences of skin reaction (erythema and edema). In case of skin reaction was appeared, then it was determined as positive reaction in skin sensitization which was defined as a positive ratio (%) calculated from the following formula.
Positive ratio (%)=[(G)/(H)]×100
(G): Number of positive reactions in skin sensitization and
(H): Number of total animal tests].

Structure (SMILES)	Positive ratio (%)
O=C1CCc2c(O)c(CN3CCCC3)cc(OC3CCCCO3)c2N1 (stereo not shown) [Example 47]	0%
C=CCOc1cc(CN(C)C)c(O)c2c1NC(=O)CC2 [Example 18, 8-allyloxy-3,4-dihydro-5-hydroxy-6-dimethyl-aminomethyl-2(1H)-quinolinone hydrochloride]	0%
C=CCOc1cc(CN2CCCCC2)c(O)c2c1N(CC=C(C)C)C(=O)CC2 [Example 32]	0%
C=CCOc1cc(CN2CCCCC2)c(O)c2c1NC(=O)CC2 [Example 28, 8-allyloxy-3,4-dihydro-5-hydroxy-6-(1-piperidinyl)methyl-2(1H)-quinolinonehydrochloride]	0%
Cc1cc2c(c(CN3CCCC3)c1O)NC(=O)CC2 [Example 25]	0%

Test system: not given
Assay: not given
Conditions: assigned value of the standard α-tocopherol; cited from earlier work

Structure (SMILES)	number of captured free radicals (standard substance)
Cc1c(C)c2c(c(C)c1O)CCC(C)(CCCC(C)CCCC(C)CCCC(C)C)O2 (stereo not drawn) [α-tocopherol]	2
